# ChEMBL document CHEMBL1201862, “PubChem BioAssay data set” (2004)
# The source made the active and inactive calls.
# Experiments:
# [1] = target: Glucose-6-phosphate 1-dehydrogenase (Homo sapiens, UniProt P11413); assay: inhibition of Homo sapiens G6PD, dose series – biochemical, fluorescence, selectivity assay for P. falciparum G6PD inhibitor project, dose response (AID 504792); format: functional
# [2] = system: Streptococcus; assay: GAS UMAA2166 growth inhibition – luminescence, BacTiterGlo, counter-screen for streptokinase expression inhibitor project, dose response (AID 1915); format: functional, organism-based;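 also: potency for reduction of bacterial viability or growth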
# [3] = target: T1, Streptokinase A (Streptococcus pyogenes serotype M1, UniProt P10520); assay: viability-normalized secreted streptokinase activity reduction – plasminogen activation absorbance, OD405, dose response (AID 1914); format: functional, Streptococcus pyogenes M1 GAS;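 also: secreted streptokinase activity via plasminogen activation per viability signal from cell pellet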
# T1 sequence (P10520 whole entry): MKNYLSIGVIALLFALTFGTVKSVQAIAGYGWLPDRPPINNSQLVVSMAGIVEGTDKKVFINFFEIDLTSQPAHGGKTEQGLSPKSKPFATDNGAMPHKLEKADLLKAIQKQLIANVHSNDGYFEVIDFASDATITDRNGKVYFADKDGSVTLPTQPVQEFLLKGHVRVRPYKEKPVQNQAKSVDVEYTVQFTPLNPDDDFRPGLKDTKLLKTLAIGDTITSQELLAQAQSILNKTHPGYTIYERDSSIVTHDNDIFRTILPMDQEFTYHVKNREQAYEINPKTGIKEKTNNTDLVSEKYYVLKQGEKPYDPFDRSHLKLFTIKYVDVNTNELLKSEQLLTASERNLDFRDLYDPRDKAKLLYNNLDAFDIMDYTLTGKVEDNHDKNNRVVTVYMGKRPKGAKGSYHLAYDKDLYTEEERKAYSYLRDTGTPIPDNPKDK
# [4] = system: Streptococcus sp. 'group A'; assay: Streptococcus pyogenes SK(-)GAS viability under kanamycin – luminescence, BacTiterGlo, confirmation, counter-screen for streptokinase expression inhibitor project, dose response (AID 1900); format: functional, organism-based
# [5] = system: HEK293; assay: EBV LMP1 TES2 canonical NF-kB signalling blockers – cell-based, HEK293, luciferase, cherry-pick, dose response (AID 588343); format: functional; details: Homo sapiens
# [6] = microbe, parasite or virus in culture; format: functional; details: Mycobacterium tuberculosis
# [7] = target: Neurotensin receptor type 1 (Homo sapiens, UniProt P30989); format: functional;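 also: Image-based confirmatory dose-response assay measuring agonist activity at NTR1; NTR1-expressing U2OS osteosarcoma cells imaged for beta-arrestin GFP spot formation; agonist potency where compounds increase beta-arrestin recruitment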
# Sequence of Neurotensin receptor type 1 (P30989 whole entry): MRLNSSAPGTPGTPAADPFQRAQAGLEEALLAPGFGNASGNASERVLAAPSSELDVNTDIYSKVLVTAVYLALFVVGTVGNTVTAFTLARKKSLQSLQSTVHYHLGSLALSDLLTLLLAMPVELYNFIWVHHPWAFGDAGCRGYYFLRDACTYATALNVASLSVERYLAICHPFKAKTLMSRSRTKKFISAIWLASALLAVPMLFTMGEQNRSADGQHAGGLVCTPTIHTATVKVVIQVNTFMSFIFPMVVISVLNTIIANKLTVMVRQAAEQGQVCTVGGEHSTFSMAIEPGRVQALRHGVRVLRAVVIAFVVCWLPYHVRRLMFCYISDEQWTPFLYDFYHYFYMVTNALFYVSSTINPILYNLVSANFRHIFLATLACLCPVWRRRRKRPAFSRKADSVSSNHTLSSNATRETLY
# [8] = target: Voltage-gated inwardly rectifying potassium channel KCNH2 (Homo sapiens, UniProt Q12809); details: Potency;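 also: confirmatory quantitative high-throughput screen measuring inhibition of hERG channel activity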
# Sequence of Voltage-gated inwardly rectifying potassium channel KCNH2 (Q12809 whole entry): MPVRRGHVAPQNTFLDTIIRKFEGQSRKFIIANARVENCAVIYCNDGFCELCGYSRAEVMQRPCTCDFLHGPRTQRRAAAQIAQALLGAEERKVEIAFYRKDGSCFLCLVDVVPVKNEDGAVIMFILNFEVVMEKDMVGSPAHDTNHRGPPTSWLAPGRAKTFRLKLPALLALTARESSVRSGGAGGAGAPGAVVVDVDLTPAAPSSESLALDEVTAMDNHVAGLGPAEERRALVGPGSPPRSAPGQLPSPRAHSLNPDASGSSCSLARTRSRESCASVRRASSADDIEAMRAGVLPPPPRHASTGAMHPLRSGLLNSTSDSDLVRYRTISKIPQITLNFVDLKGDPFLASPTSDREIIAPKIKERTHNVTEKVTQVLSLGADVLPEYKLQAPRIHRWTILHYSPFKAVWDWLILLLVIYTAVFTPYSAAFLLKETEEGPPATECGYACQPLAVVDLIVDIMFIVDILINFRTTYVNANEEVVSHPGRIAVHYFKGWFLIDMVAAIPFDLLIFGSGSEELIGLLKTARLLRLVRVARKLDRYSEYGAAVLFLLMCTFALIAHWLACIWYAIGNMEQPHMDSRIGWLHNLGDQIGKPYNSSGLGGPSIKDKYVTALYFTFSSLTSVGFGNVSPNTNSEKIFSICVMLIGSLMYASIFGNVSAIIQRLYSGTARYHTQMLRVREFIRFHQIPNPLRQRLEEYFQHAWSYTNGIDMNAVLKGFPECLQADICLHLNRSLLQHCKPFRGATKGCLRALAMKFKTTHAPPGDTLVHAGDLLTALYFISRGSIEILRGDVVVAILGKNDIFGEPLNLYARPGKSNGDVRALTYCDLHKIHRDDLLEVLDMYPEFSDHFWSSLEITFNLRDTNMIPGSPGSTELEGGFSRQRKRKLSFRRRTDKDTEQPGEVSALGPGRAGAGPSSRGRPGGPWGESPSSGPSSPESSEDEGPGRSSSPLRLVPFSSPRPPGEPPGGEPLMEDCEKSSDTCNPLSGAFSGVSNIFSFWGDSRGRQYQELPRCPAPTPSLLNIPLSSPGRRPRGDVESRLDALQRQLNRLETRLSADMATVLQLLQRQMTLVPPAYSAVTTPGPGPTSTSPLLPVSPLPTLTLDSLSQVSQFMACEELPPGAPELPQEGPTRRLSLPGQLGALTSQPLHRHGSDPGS
# [9] = system: Vero; assay: viability of Vero cells under compound – cytotoxicity control for flavivirus capping enzyme inhibitors (AID 588742); format: functional; details: Chlorocebus sabaeus
# [10] = system: HeLa; assay: ATP-based viability loss in HeLa cells – cell-based, CellTiter-Glo luminescence, cherry-pick samples, cytotoxicity control for MITF activator project, dose response (AID 540259); format: functional; details: Homo sapiens
# [11] = system: A-375; assay: MITF: Counter assay: A375 proliferation Measured in Cell-Based System Using Plate Reader - 2084-03_Inhibitor_Dose_DryPowder_Activity. [Related pubchem assays (depositor defined):AID488944]; format: functional; details: Homo sapiens
# [12] = target: T2, Orexin/Hypocretin receptor type 1 (Homo sapiens, UniProt O43613); assay: Homogeneous Time Resolved Fluorescence (HTRF)-based cell-based high throughput dose response assay for antagonists of the orexin 1 receptor (OX1R; HCRTR1). [Related pubchem assays (depositor defined):AID434989, AID435008, AID463079, AID485270, AID492963, AID492964, AID492965, AID493232, AID504717, AID504718]; format: functional
# T2 sequence (O43613 whole entry): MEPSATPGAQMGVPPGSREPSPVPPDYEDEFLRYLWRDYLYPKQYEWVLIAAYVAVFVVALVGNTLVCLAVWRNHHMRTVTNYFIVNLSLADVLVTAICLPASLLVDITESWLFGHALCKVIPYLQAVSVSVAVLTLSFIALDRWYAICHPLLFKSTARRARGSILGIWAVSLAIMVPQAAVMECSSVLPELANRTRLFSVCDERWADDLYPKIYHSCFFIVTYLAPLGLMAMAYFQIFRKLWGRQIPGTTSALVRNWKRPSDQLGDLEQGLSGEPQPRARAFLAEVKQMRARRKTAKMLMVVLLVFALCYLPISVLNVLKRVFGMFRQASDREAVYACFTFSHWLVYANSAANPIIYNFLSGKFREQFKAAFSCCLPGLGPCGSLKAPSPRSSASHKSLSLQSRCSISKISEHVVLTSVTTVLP
# [13] = Counterscreen for antagonists of the orexin 1 receptor (OX1R; HCRTR1): Fluorescence-based cell-based high throughput dose response assay to identify antagonists of the parental CHO cell line. [Related pubchem assays (depositor defined):AID434989, AID435008, AID463079, AID485270, AID492963, AID492964, AID492965, AID493232, AID504699, AID504701]; format: functional
# [14] = target: Sphingosine 1-phosphate receptor 2 (Homo sapiens, UniProt O95136); assay: Dose Response Cell Based Assay for Antagonists of the S1P2 Receptor. [Related pubchem assays: 856, 736 ]; format: functional
# Sequence of Sphingosine 1-phosphate receptor 2 (O95136 whole entry): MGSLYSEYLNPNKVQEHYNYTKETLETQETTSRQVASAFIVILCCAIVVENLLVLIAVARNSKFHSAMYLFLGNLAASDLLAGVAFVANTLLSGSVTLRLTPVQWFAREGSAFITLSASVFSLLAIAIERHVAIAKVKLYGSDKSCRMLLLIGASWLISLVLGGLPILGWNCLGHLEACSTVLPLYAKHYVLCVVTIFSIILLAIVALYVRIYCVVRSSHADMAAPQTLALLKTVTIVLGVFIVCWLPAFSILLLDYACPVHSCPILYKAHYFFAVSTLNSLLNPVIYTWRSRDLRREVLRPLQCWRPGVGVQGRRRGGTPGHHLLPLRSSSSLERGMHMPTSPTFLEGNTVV
# [15] = reduction of Shn3 3'UTR-driven luciferase in osteoblasts – cell-based, Clone20 osteoblasts, firefly luciferase, cherry-picked, dose response (AID 624132); format: functional;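 also: firefly luciferase luminescence from reporter carrying the Shn3 3'UTR in osteoblasts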
# [16] = system: INS1; assay: INS-1E survival protection against cytokine death – cell-based, luminescence, retest, dose response (AID 449756); format: functional; details: Rattus norvegicus;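 also: cell death triggered by IL-1 beta plus TNF-alpha plus IFN-gamma mixture; protective hits raise ATP signal compared with cytokine alone wells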
# [17] = target: T2, Orexin/Hypocretin receptor type 1; assay: Fluorescence-based cell-based high throughput dose response assay for antagonists of the orexin 1 receptor (OX1R; HCRTR1). [Related pubchem assays (depositor defined):AID434989, AID435008, AID463079, AID485270, AID492963, AID492964, AID492965, AID493232, AID504717, AID504718]; format: functional
# [18] = non-specific 3'UTR reporter inhibition in Clone20-Shn3RL – cell-based, Renilla luciferase, cherry-picked, counter-screen for Shn3 inhibitor project, dose response (AID 624133); format: functional
# [19] = target: T3, Microphthalmia-associated transcription factor (Homo sapiens, UniProt O75030); assay: reducers of TRPM1 reporter luminescence, concentration series – cell-based, SK-MEL-5, cherry-picked, set 3, MITF inhibitor project, dose response (AID 493073); format: functional;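 also: SK-MEL-5 melanoma cells with luciferase driven by the MITF target TRPM1 promoter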
# T3 sequence (O75030 whole entry): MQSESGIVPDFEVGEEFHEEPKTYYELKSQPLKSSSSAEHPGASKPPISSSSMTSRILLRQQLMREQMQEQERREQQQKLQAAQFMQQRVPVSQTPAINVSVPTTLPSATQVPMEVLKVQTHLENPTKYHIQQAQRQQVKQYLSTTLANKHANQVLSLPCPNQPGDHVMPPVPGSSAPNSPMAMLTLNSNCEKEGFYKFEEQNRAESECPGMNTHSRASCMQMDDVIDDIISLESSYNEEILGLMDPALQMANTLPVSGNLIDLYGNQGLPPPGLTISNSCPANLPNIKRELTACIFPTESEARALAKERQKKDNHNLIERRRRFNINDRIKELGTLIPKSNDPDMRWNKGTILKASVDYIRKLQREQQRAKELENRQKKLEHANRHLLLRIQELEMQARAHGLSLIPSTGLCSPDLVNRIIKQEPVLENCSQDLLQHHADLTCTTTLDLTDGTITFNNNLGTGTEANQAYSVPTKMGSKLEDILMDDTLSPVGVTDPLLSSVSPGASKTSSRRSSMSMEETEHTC
# [20] = target: T4, Orexin receptor type 2 (Homo sapiens, UniProt O43614); assay: Counterscreen assay for antagonists of the orexin 1 receptor (OX1R; HCRTR1): Fluorescence-based cell-based dose response assay for antagonists of the orexin 2 receptor (OX2R; HCRTR2), run by assay provider.; format: functional
# T4 sequence (O43614 whole entry): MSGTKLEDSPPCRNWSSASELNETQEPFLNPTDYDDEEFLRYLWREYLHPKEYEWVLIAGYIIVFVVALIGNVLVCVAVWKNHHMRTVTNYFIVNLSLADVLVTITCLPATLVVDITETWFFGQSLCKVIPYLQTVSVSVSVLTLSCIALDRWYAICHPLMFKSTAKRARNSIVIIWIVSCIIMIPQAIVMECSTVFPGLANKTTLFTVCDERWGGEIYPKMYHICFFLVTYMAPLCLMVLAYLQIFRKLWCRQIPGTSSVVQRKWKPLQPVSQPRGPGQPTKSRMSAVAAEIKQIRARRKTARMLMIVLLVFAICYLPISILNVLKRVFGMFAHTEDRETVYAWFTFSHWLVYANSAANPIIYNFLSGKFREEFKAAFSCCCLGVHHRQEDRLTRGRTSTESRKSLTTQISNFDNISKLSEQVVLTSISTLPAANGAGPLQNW
# [21] = system: Jurkat; assay: blockers of NF-kB activation in T cells – Jurkat, luciferase reporter, luminescence, B- and T-cell, dose response (AID 489004); format: functional, cell-based; details: Homo sapiens;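 also: NF-kB luciferase reporter Jurkat cells stimulated with PMA plus ionomycin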
# [22] = loss of viability in HepG2 cells – cell-based, CellTiter-Glo, cherry-picked, cytotoxicity control for Shn3 inhibitor project, dose response (AID 624134); format: functional
# [23] = target: T4, Orexin receptor type 2; assay: Counterscreen assay for antagonists of the orexin 1 receptor (OX1R; HCRTR1): Homogeneous Time Resolved Fluorescence (HTRF)-based cell-based dose response assay for antagonists of the orexin 2 receptor (OX2R; HCRTR2), run by assay provider.; format: functional
# [24] = target: Fatty acid synthase (Homo sapiens, UniProt P49327); assay: inhibition of human FAS-TE enzyme activity – biochemical, kinetic fluorescence intensity, dose response (AID 624326); format: functional;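 also: rate of fluorescence rise from hydrolysis of a fluorogenic O-methyl fluorescein ester substrate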
# Sequence of Fatty acid synthase (P49327 whole entry): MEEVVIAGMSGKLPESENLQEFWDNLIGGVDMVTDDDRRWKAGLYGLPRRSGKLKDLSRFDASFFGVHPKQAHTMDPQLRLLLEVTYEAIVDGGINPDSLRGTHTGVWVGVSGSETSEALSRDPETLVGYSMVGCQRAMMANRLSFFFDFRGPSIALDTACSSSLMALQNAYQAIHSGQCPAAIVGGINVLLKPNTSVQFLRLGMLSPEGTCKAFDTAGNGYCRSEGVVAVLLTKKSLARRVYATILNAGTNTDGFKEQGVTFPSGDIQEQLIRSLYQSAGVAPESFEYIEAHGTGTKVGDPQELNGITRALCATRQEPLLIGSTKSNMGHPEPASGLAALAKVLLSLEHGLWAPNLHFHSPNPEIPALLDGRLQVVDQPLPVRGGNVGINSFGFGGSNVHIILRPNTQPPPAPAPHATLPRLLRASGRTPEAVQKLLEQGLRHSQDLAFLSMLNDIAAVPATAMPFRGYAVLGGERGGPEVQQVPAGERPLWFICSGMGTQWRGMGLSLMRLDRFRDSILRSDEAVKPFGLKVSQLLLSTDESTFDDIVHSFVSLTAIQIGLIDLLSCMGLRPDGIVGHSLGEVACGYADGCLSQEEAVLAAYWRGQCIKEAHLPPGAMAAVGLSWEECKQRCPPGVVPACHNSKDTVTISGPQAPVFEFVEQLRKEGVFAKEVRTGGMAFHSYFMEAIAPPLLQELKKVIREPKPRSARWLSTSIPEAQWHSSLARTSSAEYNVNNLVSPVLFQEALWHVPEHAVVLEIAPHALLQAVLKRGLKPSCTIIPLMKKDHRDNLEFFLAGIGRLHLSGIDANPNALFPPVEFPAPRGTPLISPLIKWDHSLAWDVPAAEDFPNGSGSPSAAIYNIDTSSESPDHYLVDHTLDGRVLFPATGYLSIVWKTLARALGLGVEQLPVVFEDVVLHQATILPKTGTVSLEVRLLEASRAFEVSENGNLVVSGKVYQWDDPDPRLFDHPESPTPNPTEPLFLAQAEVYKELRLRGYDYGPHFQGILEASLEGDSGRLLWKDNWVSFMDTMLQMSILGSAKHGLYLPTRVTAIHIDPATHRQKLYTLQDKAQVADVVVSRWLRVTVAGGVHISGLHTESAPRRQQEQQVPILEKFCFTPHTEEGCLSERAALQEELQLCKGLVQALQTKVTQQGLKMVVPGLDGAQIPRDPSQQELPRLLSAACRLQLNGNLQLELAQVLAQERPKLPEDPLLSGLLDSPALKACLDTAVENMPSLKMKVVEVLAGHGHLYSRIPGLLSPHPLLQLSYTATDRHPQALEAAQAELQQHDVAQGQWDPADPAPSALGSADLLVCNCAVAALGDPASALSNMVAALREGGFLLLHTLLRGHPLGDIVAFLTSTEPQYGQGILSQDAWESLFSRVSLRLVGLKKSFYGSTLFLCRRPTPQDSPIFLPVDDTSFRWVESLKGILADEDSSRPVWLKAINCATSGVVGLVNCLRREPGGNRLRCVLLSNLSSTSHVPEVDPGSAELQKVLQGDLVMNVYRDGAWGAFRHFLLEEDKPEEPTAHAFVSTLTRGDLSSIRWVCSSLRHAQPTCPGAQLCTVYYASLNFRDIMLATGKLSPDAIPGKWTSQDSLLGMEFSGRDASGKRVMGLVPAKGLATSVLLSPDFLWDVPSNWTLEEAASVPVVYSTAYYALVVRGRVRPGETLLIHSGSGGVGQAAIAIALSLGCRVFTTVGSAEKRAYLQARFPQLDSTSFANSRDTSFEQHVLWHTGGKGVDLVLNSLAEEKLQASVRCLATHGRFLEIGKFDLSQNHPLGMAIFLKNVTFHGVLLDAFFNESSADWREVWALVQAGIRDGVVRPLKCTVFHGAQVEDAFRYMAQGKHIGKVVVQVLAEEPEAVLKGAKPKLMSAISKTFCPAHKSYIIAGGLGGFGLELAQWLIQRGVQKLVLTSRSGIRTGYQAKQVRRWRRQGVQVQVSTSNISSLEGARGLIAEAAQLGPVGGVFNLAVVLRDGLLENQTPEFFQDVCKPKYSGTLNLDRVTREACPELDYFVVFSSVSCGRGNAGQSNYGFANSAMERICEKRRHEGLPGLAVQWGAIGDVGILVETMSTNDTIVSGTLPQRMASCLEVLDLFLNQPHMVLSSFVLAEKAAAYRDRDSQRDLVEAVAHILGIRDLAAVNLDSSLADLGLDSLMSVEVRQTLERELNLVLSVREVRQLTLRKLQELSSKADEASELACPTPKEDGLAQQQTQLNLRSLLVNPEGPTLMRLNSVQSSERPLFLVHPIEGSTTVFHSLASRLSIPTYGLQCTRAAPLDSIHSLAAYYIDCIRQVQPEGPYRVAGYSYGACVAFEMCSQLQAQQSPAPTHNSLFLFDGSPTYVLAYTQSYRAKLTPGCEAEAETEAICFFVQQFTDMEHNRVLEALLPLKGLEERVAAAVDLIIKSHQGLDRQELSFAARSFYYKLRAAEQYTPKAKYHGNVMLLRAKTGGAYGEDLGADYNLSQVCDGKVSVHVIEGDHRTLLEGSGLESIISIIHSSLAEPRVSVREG
# [25] = HEK-293T viability loss, compound-treated – cell-based, uHTS hits, cytotoxicity control for B/T-cell NF-kB inhibitor project, dose response (AID 489019); format: functional;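 also: IC50 reflects cytotoxicity as loss of cell viability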
# [26] = system: CHO-K1; assay: Counterscreen for antagonists of the orexin 1 receptor (OX1R; HCRTR1): Homogeneous time resolved fluorescence (HTRF)-based cell-based dose response assay to identify antagonists of the parental CHO-K1 cell line. [Related pubchem assays (depositor defined):AID434989, AID435008, AID463079, AID485270, AID492963, AID492964, AID492965, AID493232, AID504699, AID504701]; format: functional; details: Cricetulus griseus;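 also: potency for inhibition of ATP-stimulated IP1 production as antagonists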
# [27] = target: T5, Endoribonuclease toxin MazF (Escherichia coli K-12, UniProt P0AE70); assay: substrate-only fluorescence increase artefacts – biochemical, single-stranded RNase substrate, counter-screen for MazEF activator project, dose response (AID 588502); format: functional
# T5 sequence (P0AE70 whole entry): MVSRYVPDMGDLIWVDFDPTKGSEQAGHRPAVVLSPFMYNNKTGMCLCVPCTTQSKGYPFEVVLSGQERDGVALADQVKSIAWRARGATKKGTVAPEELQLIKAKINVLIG
# [28] = target: T5, Endoribonuclease toxin MazF; assay: activation of MazEF endoribonuclease cleavage – biochemical, fluorescence, single-stranded RNA substrate, uHTS hits, dose response (AID 588481); format: functional
# Sequence of Glucose-6-phosphate 1-dehydrogenase (P11413 whole entry): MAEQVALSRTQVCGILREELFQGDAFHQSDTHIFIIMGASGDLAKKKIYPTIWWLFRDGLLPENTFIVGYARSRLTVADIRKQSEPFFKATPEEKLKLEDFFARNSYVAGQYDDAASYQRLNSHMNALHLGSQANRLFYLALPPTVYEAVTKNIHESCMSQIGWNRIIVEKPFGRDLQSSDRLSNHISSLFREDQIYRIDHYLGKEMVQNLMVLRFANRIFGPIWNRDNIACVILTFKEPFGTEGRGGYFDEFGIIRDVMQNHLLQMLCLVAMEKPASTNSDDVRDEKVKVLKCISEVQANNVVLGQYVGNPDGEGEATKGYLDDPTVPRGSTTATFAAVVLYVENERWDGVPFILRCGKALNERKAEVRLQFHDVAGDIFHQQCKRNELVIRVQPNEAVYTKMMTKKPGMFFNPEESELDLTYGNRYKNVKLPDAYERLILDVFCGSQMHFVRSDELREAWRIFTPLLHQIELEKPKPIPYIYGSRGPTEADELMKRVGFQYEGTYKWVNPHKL
structure (smiles),measurement,setting,value
Cc1ccc(C(=O)/C=C/C(=O)c2ccc(C)cc2)cc1,IC50,[1],> 80 µM (inactive)
same,EC50,[2],9.38 µM (active)
same,EC50,[3],653 nM (active)
same,EC50,[4],3.45 µM (active)
same,AC50,[5],8.72 µM (active)
same,CC50,[6],31.4 µM (active)
same,EC50,[7],14.9 µM (active)
CCC(Cl)CC(Cl)C(Cl)C(Cl)C(Cl)C(C)Cl (stereo unspecified),AC50,[8],11.2 µM (inconclusive)
Cc1nc2cc(NCc3nc4ccccc4n3Cc3ccccc3)ccc2n1C,CC50,[9],> 40 µM (active)
COc1ccc(-c2cc(=O)c3cc(C)ccc3[nH]2)cc1,AC50,[10],79.9 µM (active)
COc1cc(NCc2ccccc2O)c2ncccc2c1,IC50,[1],> 80 µM (inactive)
CCN(Cc1ccccc1)c1ccccc1,AC50,[8],35.5 µM (inconclusive)
CC(C)=NOc1cc(NC(=O)CCl)cc([N+](=O)[O-])c1,AC50,[11],15.3 µM (active)
COc1ccccc1C(=O)Nc1nc(-c2ccc(S(=O)(=O)N3CCOCC3)cc2)cs1,IC50,[12],3.59 µM (active)
same,IC50,[13],> 16.6 µM (inactive)
same,IC50,[14],3.81 µM (active)
same,AC50,[15],1.21 µM (active)
same,AC50,[16],3.17 µM (active)
same,IC50,[17],17.5 µM (inactive)
same,AC50,[18],2.34 µM (active)
same,AC50,[19],4.34 µM (active)
same,IC50,[20],8.4 µM (active)
same,IC50,[21],7.79 µM (active)
same,AC50,[22],51.8 µM (active)
same,IC50,[23],5.93 µM (active)
same,IC50,[24],10.9 µM (active)
same,IC50,[25],> 80 µM (inactive)
same,IC50,[26],> 66.2 µM (inactive)
CCN(CC)C(=O)Oc1ccc2c(=O)c(-c3ccc(OC)cc3)coc2c1,AC50,[10],287 µM (active)
CN(CC(=O)Nc1ccccc1Cl)CC(=O)c1c(N)n(Cc2ccccc2)c(=O)n(C)c1=O,EC50,[27],> 99 µM (inactive)
same,EC50,[28],> 99 µM (inactive)
